Data on six compounds can be found in US20150344540A1, “NOVEL GLP-1 RECEPTOR AGONISTS WITH CHOLESTEROL EFFLUX ACTIVITY” (NOVO NORDISK A/S, priority 2012, published 2015).

Where no end group is shown, it is not given here. Bounds are passed on as bounds.

The term EC50 denotes the concentration giving half of the maximal effect.

The first assay deals with Mouse monocyte/macrophage cell line, RAW 264.7. Briefly: Cholesterol efflux assay (3H-cholesterol, macrophage cell line). In kind it is cell-based. To be noted: RAW 264.7, 4 hrs incubation, 0.1% human serum albumin, ABCA1-mediated efflux.
`CC[C@H](C)[C@H](NC(=O)[C@H](Cc1ccccc1)NC(=O)[C@H](CCC(=O)O)NC(=O)[C@H](CCCCN)NC(=O)[C@H](C)NC(=O)[C@H](C)NC(=O)[C@H](CCC(N)=O)NC(=O)CNC(=O)[C@H](CCC(=O)O)NC(=O)[C@H](CC(C)C)NC(=O)[C@H](Cc1ccc(O)cc1)NC(=O)[C@H](CO)NC(=O)[C@H](CO)NC(=O)[C@@H](NC(=O)[C@H](CC(=O)O)NC(=O)[C@H](CO)NC(=O)[C@@H](NC(=O)[C@H](Cc1ccccc1)NC(=O)[C@@H](NC(=O)CNC(=O)[C@H](CCC(=O)O)NC(=O)[C@H](C)NC(=O)[C@@H](N)Cc1c[nH]cn1)[C@@H](C)O)[C@@H](C)O)C(C)C)C(=O)N[C@@H](C)C(=O)N[C@@H](Cc1c[nH]c2ccccc12)C(=O)N[C@@H](CC(C)C)C(=O)N[C@H](C(=O)N[C@@H](CCCCN)C(=O)NCC(=O)N[C@@H](CCCNC(=N)N)C(=O)NCC(=O)O)C(C)C` [GLP-1(7-37), reference compound]: the “4 h Cholesterol Efflux Emax” value is reported as less than 10%. Still for that read-out and setting: to “Ac-DWFKAFYDKVAEKFKEAF-NH2 (N-terminus and C-terminus assumed) [Compound L-4F, reference compound]” belongs 108%; to “H-HAEGTFTSDVSSYLEGEAVKEFIAWLVEKVKEHLEK-OH [Compound 125, [Glu23,Val25,Glu34,Lys35,Val36,Lys37]-GLP-1-(7-37)-peptidyl-Glu-His-Leu-Glu-Lys]”, 111%; to “H-HAEGTFTSDVSSYLEGQAAKEFIAWLVEKVKEHLEK-OH [Compound 126, [Glu34,Lys35,Val36,Lys37]-GLP-1-(7-37)-peptidyl-Glu-His-Leu-Glu-Lys]”, 102%. As for “H-HGEGTFTSDVSSYLEGEAVKEFIAWLVEKVKEFLG-OH [Compound 92, [Gly8,Glu23,Val25,Glu34,Lys35,Val36,Lys37]-GLP-1-(7-37)-peptidyl-Glu-Phe-Leu-Gly]”, the “4 h Cholesterol Efflux Emax” value stood at 129%.

Staying with this assay, now noted: read-out: 4 h Cholesterol Efflux EC50; RAW 264.7, 4 hrs incubation, 0.1% human serum albumin, ABCA1-mediated efflux (CPT-cAMP induced minus non-induced).
On to “HAQGTFTSDYSKYLDSKAAREFVQWLLEKVKEFL-NH2 [Compound 68]”, for which the EC50 is 0.27 µM.
